Test results: patent publication US6358885B1, “Substituted phenylheterocyclic herbicides” (Mississippi State University, priority 1992, dated 2002)

Columns and labels:
blackgrass = assay: Test C preemergence/postemergence greenhouse plant response rating 0 to 100; assay type: in vivo, Alopecurus myosuroides; details: POSTEMERGENCE
Description: (§1) The compounds evaluated in this test were formulated in a non-phytoxic solvent and applied to the soil surface before plant seedlings emerged (preemergence application), to water that covered the soil surface (flood application), and to plants that were in the one-to-four leaf stage (postemergence application). A sandy loam soil was used for the preemergence and postemergence tests, while a silt loam soil was used in the flood test. Water depth was approximately 2.5 cm for the flood test and was maintained at this level for the duration of the test. Plant species in the preemergence and postemergence tests consisted of barley (Hordeum vulgare), bedstraw (Galium aparine), blackgrass (Alopecurus myosuroides), chickweed (Stellaria media), corn (Zea mays), cotton (Gossypium hirsutum), crabgrass (Digitaria sanguinalis), downy brome (Bromus tectorum), giant foxtail (Setaria faberii), lambsquarters (Chenopodium album), morningglory (Ipomoea hederacea), pigweed ([…]), rape (Brassica napus), ryegrass (Lolium multiflorum), sorghum (Sorghum bicolor), soybean (Glycine max), speedwell (Veronica persica), sugar beet (Beta vulgaris), velvetleaf (Abutilon theophrasti), wheat (Triticum aestivum), wild buckwheat (Polygonum convolvulus), and wild oat (Avena fatua). All plant species were planted one day before application of the compound for the preemergence portion-of this test. Plantings of these species were adjusted to produce plants of appropriate size for the post-emergence portion of the test. […] All plant species were grown using normal greenhouse practices. Visual evaluations of injury expressed on treated plants, when compared to untreated controls, were recorded approximately fourteen to twenty one days after application of the test compound. […] A dash (-) response means no test result.

velvetleaf = assay: Test B preemergence/postemergence greenhouse plant response rating 0 to 10; assay type: in vivo, Abutilon theophrasti; details: 0 to 10 scale
In short: (§2)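 Postemergence treatment of plants two to eighteen cm tall ran alongside preemergence treatment of planted seed, each using compound in a non-phytotoxic solvent.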

wild buckwheat = assay: as above; assay type: in vivo, Polygonum convolvulus; details: 0 to 10 scale
In short: as §2

chickweed [1] = assay: as above; assay type: in vivo, Stellaria media; details: 0 to 10 scale
In short: as §2

barley [2] = assay: as above; assay type: in vivo, Hordeum vulgare; details: 0 to 10 scale
In short: as §2

rape = assay: Test C preemergence/postemergence greenhouse plant response rating 0 to 100; assay type: in vivo, Brassica napus; details: POSTEMERGENCE
Description: as §1

sugar beet = assay: Test B preemergence/postemergence greenhouse plant response rating 0 to 10; assay type: in vivo, Beta vulgaris; details: 0 to 10 scale
In short: as §2

ryegrass = assay: Test C preemergence/postemergence greenhouse plant response rating 0 to 100; assay type: in vivo, Lolium multiflorum; details: POSTEMERGENCE
Description: as §1

barley [3] = assay: as above; assay type: in vivo, Hordeum vulgare; details: POSTEMERGENCE
Description: as §1

cocklebur = assay: Test B preemergence/postemergence greenhouse plant response rating 0 to 10; assay type: in vivo, Xanthium pensylvanicum; details: 0 to 10 scale
In short: as §2

chickweed [4] = assay: Test C preemergence/postemergence greenhouse plant response rating 0 to 100; assay type: in vivo, Stellaria media; details: POSTEMERGENCE
Description: as §1

sorghum = assay: Test B preemergence/postemergence greenhouse plant response rating 0 to 10; assay type: in vivo, Sorghum bicolor; details: 0 to 10 scale
In short: as §2

soybean [5] = assay: as above; assay type: in vivo, Glycine max; details: 0 to 10 scale
In short: as §2

pigweed = assay: Test C preemergence/postemergence greenhouse plant response rating 0 to 100; assay type: in vivo, Amaranthusretroflexus; details: POSTEMERGENCE
Description: as §1

bedstraw = assay: Test B preemergence/postemergence greenhouse plant response rating 0 to 10; assay type: in vivo, Galium aparine; details: 0 to 10 scale
In short: as §2

soybean [6] = assay: Test C preemergence/postemergence greenhouse plant response rating 0 to 100; assay type: in vivo, Glycine max; details: POSTEMERGENCE
Description: as §1

morningglory = assay: Test B preemergence/postemergence greenhouse plant response rating 0 to 10; assay type: in vivo, Ipomoea hederacea; details: 0 to 10 scale
In short: as §2

C#CCN1C(=O)COc2cc(F)c(-c3nn4c(c3Br)CCCC4)cc21 [Compound 56]
Plant response rating, Blackgrass (blackgrass; 62 g/ha, 0 to 100 scale): 80
Plant response rating (0 to 100), Blackgrass (blackgrass; Rate 1 g/ha): 30
Plant response rating (0 to 100), Blackgrass (blackgrass; Rate 4 g/ha): 40
Plant response rating (0 to 100), Blackgrass (blackgrass; Rate 16 g/ha): 65
Plant response rating, Velvetleaf (velvetleaf; POSTEMERGENCE, Rate 10 g/ha): 9
Plant response rating, Velvetleaf (velvetleaf; POSTEMERGENCE, Rate 50 g/ha): 9
Plant response rating, Velvetleaf (velvetleaf; PREEMERGENCE, Rate 50 g/ha): 10
Plant response rating, Wild buckwheat (wild buckwheat; POSTEMERGENCE, Rate 10 g/ha): 10
Plant response rating, Wild buckwheat (wild buckwheat; POSTEMERGENCE, Rate 50 g/ha): 10
Plant response rating, Wild buckwheat (wild buckwheat; PREEMERGENCE, Rate 50 g/ha): 9
Plant response rating, Chickweed (chickweed [1]; POSTEMERGENCE, Rate 10 g/ha): 9
Plant response rating, Chickweed (chickweed [1]; POSTEMERGENCE, Rate 50 g/ha): 10
Plant response rating, Chickweed (chickweed [1]; PREEMERGENCE, Rate 10 g/ha): 9
Plant response rating, Chickweed (chickweed [1]; PREEMERGENCE, Rate 50 g/ha): 10
Plant response rating, Barley (barley [2]; POSTEMERGENCE, Rate 10 g/ha): 6
Plant response rating, Barley (barley [2]; POSTEMERGENCE, Rate 50 g/ha): 7
Plant response rating, Barley (barley [2]; PREEMERGENCE, Rate 10 g/ha): 0
Plant response rating, Barley (barley [2]; PREEMERGENCE, Rate 50 g/ha): 2
Plant response rating, Rape (rape; 62 g/ha, 0 to 100 scale): 100
Plant response rating (0 to 100), Rape (rape; Rate 1 g/ha): 100
Plant response rating (0 to 100), Rape (rape; Rate 4 g/ha): 100
Plant response rating (0 to 100), Rape (rape; Rate 16 g/ha): 100
Plant response rating, Sugar beet (sugar beet; POSTEMERGENCE, Rate 10 g/ha): 10
Plant response rating, Sugar beet (sugar beet; POSTEMERGENCE, Rate 50 g/ha): 10
Plant response rating, Sugar beet (sugar beet; PREEMERGENCE, Rate 50 g/ha): 9
Plant response rating Ryegrass (ryegrass; 62 g/ha, 0 to 100 scale): 50
Plant response rating (0 to 100), Ryegrass (ryegrass; Rate 1 g/ha): 20
Plant response rating (0 to 100), Ryegrass (ryegrass; Rate 4 g/ha): 40
Plant response rating (0 to 100), Ryegrass (ryegrass; Rate 16 g/ha): 40
Plant response rating Barley Igri (barley [3]; 62 g/ha, 0 to 100 scale): 50
Plant response rating (0 to 100), Barley Igri (barley [3]; Rate 1 g/ha): 30
Plant response rating (0 to 100), Barley Igri (barley [3]; Rate 4 g/ha): 30
Plant response rating (0 to 100), Barley Igri (barley [3]; Rate 16 g/ha): 50
Plant response rating, Cocklebur (cocklebur; POSTEMERGENCE, Rate 10 g/ha): 10
Plant response rating, Cocklebur (cocklebur; POSTEMERGENCE, Rate 50 g/ha): 10
Plant response rating, Cocklebur (cocklebur; PREEMERGENCE, Rate 10 g/ha): 2
Plant response rating, Cocklebur (cocklebur; PREEMERGENCE, Rate 50 g/ha): 2
Plant response rating, Chickweed (chickweed [4]; 62 g/ha, 0 to 100 scale): 100
Plant response rating (0 to 100), Chickweed (chickweed [4]; Rate 1 g/ha): 65
Plant response rating (0 to 100), Chickweed (chickweed [4]; Rate 4 g/ha): 80
Plant response rating (0 to 100), Chickweed (chickweed [4]; Rate 16 g/ha): 100
Plant response rating, Sorghum (sorghum; POSTEMERGENCE, Rate 10 g/ha): 3
Plant response rating, Sorghum (sorghum; POSTEMERGENCE, Rate 50 g/ha): 2
Plant response rating, Sorghum (sorghum; PREEMERGENCE, Rate 50 g/ha): 0
Plant response rating, Soybean (soybean [5]; POSTEMERGENCE, Rate 10 g/ha): 9
Plant response rating, Soybean (soybean [5]; POSTEMERGENCE, Rate 50 g/ha): 8
Plant response rating, Soybean (soybean [5]; PREEMERGENCE, Rate 50 g/ha): 0
Plant response rating Pigweed (pigweed; 62 g/ha, 0 to 100 scale): 100
Plant response rating (0 to 100), Pigweed (pigweed; Rate 1 g/ha): 100
Plant response rating (0 to 100), Pigweed (pigweed; Rate 4 g/ha): 100
Plant response rating (0 to 100), Pigweed (pigweed; Rate 16 g/ha): 100
Plant response rating, Bedstraw (bedstraw; POSTEMERGENCE, Rate 10 g/ha): 8
Plant response rating, Bedstraw (bedstraw; POSTEMERGENCE, Rate 50 g/ha): 10
Plant response rating, Bedstraw (bedstraw; PREEMERGENCE, Rate 10 g/ha): 4
Plant response rating, Bedstraw (bedstraw; PREEMERGENCE, Rate 50 g/ha): 9
Plant response rating, Soybean (soybean [6]; 62 g/ha, 0 to 100 scale): 95
Plant response rating (0 to 100), Soybean (soybean [6]; Rate 1 g/ha): 40
Plant response rating (0 to 100), Soybean (soybean [6]; Rate 4 g/ha): 60
Plant response rating (0 to 100), Soybean (soybean [6]; Rate 16 g/ha): 90
Plant response rating, Morningglory (morningglory; POSTEMERGENCE, Rate 10 g/ha): 10
Plant response rating, Morningglory (morningglory; POSTEMERGENCE, Rate 50 g/ha): 9
Plant response rating, Morningglory (morningglory; PREEMERGENCE, Rate 50 g/ha): 6
